Assay results: patent US20150011559A1, “ANTIMICROBIAL AGENTS” (RUTGERS, THE STATE UNIVERSITY OF NEW JERSEY, priority 2012, published 2015)
Converted amounts (≈) assume the structure as drawn. Like-named read-outs stand apart in the source and are kept apart here.

Columns and labels:
[1] = system: methicillin-resistant Staphylococcus aureus (MRSA); assay: Antibacterial assay (Test C), broth microdilution MIC against MRSA; type: cell-based; settings: for MIC: Staphylococcus aureus, MRSA, read-out: MRSA MIC data
Protocol: (§1) Test C. Antibacterial Assay.
(§2) Antibacterial activity can be determined as per Clinical and Laboratory Standards Institute (CLSI) guidelines using a broth microdilution assay in which log-phase bacteria are grown at 37° C. in appropriate medium containing two-fold serial dilutions of a compound to yield final concentrations ranging from 256 to 0.06 μg/mL. For determination of minimal inhibitory concentration (MIC) values, bacterial growth is monitored after 24 to 48 hours by measuring optical density at 600 nm.
(§3) Using a procedure similar to Test C, representative compounds of the invention were tested against methicillin-susceptible Staphylococcus aureus (MSSA) and methicillin-resistant Staphylococcus aureus (MRSA).

[2] = system: methicillin-susceptible Staphylococcus aureus (MSSA); assay: Antibacterial assay (Test C), broth microdilution MIC against MSSA; type: cell-based; settings: for MIC: Staphylococcus aureus, MSSA, read-out: MSSA MIC data
Protocol: as §1, §2, §3

[3] = minimal inhibitory concentration, broth microdilution, growth completely inhibited
[4] = minimal inhibitory concentration, broth microdilution, growth completely inhibited, listed as 46
[5] = minimal inhibitory concentration, broth microdilution, growth completely inhibited, listed as 43
[6] = minimal inhibitory concentration, broth microdilution, growth completely inhibited, listed as 19
[7] = minimal inhibitory concentration, broth microdilution, growth completely inhibited, listed as 51
[8] = minimal inhibitory concentration, broth microdilution, growth completely inhibited, listed as 18

| Compound | MIC [1, 3] | MIC [2, 3] | further results |
| --- | --- | --- | --- |
| CC(C)(C)c1csc(-c2ccc(CN=C(N)N)cc2)n1 [Code 28] |  |  | MRSA MIC data ([1]; minimal inhibitory concentration, broth microdilution, growth completely inhibited, listed as 25): 8 µg/mL |
| NC(N)=NCc1cccc(-c2ccc(-c3cscn3)cc2)c1 [Code 65] | 32 µg/mL (≈ 104 µM) |  | MSSA MIC data [2, 3]: 8.0 µg/mL; MSSA MIC data ([2]; minimal inhibitory concentration, broth microdilution, growth completely inhibited, listed as 55): 32 µg/mL |
| CC(C)(C)c1csc(-c2cccc(CN=C(N)N)c2)n1 [Code 26] | 16 µg/mL (≈ 55.5 µM) | 4 µg/mL (≈ 13.9 µM) |  |
| CC(C)(C)OC(=O)NC(=N)NCc1nc(-c2ccc(C(C)(C)C)cc2)cs1 [Code 9] |  | 8 µg/mL (≈ 20.6 µM) |  |
| CC(C)(C)c1ccc(-c2cc(Cn3ccnc3)cc([N+](=O)[O-])c2)cc1 [Code 58] | 8 µg/mL (≈ 23.9 µM) | 8 µg/mL (≈ 23.9 µM) |  |
| CC(C)(C)c1ccc(-c2ccccc2CCN)cc1 [Code 37] |  | 32 µg/mL (≈ 126 µM) |  |
| CC(C)(C)c1ccc(-c2cc(CNC(=N)N)cc(-c3cscn3)c2)cc1 [Code 63] | 8 µg/mL (≈ 21.9 µM) | 2 µg/mL (≈ 5.49 µM) |  |
| CC(C)(C)c1ccc(-c2ccc(CNC(=N)N)cc2)cc1 [Code 18] |  | 4 µg/mL (≈ 14.2 µM) | MRSA MIC data ([1]; minimal inhibitory concentration, broth microdilution, growth completely inhibited, listed as 16): 16 µg/mL |
| CC(C)(C)c1ccc(-c2cc(CNC(=N)N)cc(-c3ccc(C(C)(C)C)cc3)c2)cc1 [Code 44] | 32 µg/mL (≈ 77.4 µM) | 4 µg/mL (≈ 9.67 µM) |  |
| COc1cc(-c2ccc(C(C)(C)C)cc2)cc(Cn2ccnc2)c1OC [Code 16] | 2 µg/mL (≈ 5.71 µM) | 2 µg/mL (≈ 5.71 µM) |  |
| COc1cc(-c2ccc(C(C)(C)C)cc2)cc(CNC(=N)N)c1OC [Code 14] | 8 µg/mL (≈ 23.4 µM) | 2 µg/mL (≈ 5.86 µM) |  |
| CC(C)(C)c1ccc(-c2ccc(CCN)cc2)cc1 [Code 19] |  | 4 µg/mL (≈ 15.8 µM) | MRSA MIC data ([1]; minimal inhibitory concentration, broth microdilution, growth completely inhibited, listed as 17): 4.0 µg/mL |
| CC(C)(C)c1csc(-c2ccc(CN=C(N)N)cc2)n1 [Code 25] | 8 µg/mL (≈ 27.7 µM) | 4 µg/mL (≈ 13.9 µM) |  |
| CN(C)Cc1ccc(-c2ccc(C(C)(C)C)cc2)cc1 [Code 22] | 32 µg/mL (≈ 120 µM) | 16 µg/mL (≈ 59.8 µM) |  |
| CC(C)(C)c1ccc(-c2ccc(C(=O)Nc3nccs3)c(Cn3ccnc3)c2)cc1 [Code 67] |  | 32 µg/mL (≈ 76.8 µM) |  |
| CCC(C)NCc1cccc(-c2ccc(C(C)(C)C)cc2)c1 (centres unmarked) [Code 54] |  |  | MSSA MIC data [2, 4]: 16 µg/mL; MRSA MIC data [1, 4]: 32 µg/mL |
| CC(C)(C)c1ccc(-c2cc(Cn3ccnc3)cc(NS(C)(=O)=O)c2)cc1 [Code 51] |  |  | MSSA MIC data [2, 5]: 1.0 µg/mL; MRSA MIC data [1, 5]: 2.0 µg/mL |
| CC(C)(C)c1ccc(-c2ccc(CO)c(Cn3ccnc3)c2)cc1 [Code 56] | 8 µg/mL (≈ 25 µM) | 2 µg/mL (≈ 6.24 µM) |  |
| COCCOCCOCCOCCOc1cc(CNC(=N)N)cc(-c2ccc(C(C)(C)C)cc2)c1 [Code 17] | 4 µg/mL (≈ 8.2 µM) | 2 µg/mL (≈ 4.1 µM) |  |
| CC(C)(C)c1ccc(-c2ccc(CCN)cc2)cc1 [Code 21] |  |  | MSSA MIC data [2, 6]: 8.0 µg/mL; MRSA MIC data [1, 6]: 16 µg/mL |

| Compound | MIC [1, 3] | MIC [2, 3] | further results |
| --- | --- | --- | --- |
| CC(C)(C)c1ccc(-c2cccc(OCCn3ccnc3)c2)cc1 [Code 15] | 4 µg/mL (≈ 12.5 µM) | 4 µg/mL (≈ 12.5 µM) |  |
| CC(C)(C)c1ccc(-c2cc(CC(Br)Br)cc(Cn3ccnc3)c2)cc1 [Code 61] | 8 µg/mL (≈ 16.8 µM) | 2 µg/mL (≈ 4.2 µM) | MSSA MIC data [2, 3]: 4.0 µg/mL |
| CCC(C)N(Cc1cccc(-c2ccc(C(C)(C)C)cc2)c1)C(=N)N (centres unmarked) [Code 57] |  | > 64 µg/mL |  |
| CC(C)(C)c1ccc(-c2cccc(CCN)c2)cc1 [Code 40] | 8 µg/mL (≈ 31.6 µM) | 16 µg/mL (≈ 63.1 µM) |  |
| COc1cc(OC(F)(F)F)ccc1-c1cc(CN=C(N)N)cc(-c2ccc(C(C)(C)C)cc2)c1 [Code 53] | 2 µg/mL (≈ 4.24 µM) | 1 µg/mL (≈ 2.12 µM) |  |
| CC(NC(=N)N)c1cccc(-c2ccc(C(C)(C)C)cc2)c1 (centres unmarked) [Code 13] | 2 µg/mL (≈ 6.77 µM) | 1 µg/mL (≈ 3.38 µM) |  |
| COC(=O)c1ccc(-c2ccc(C(C)(C)C)cc2)cc1Cn1ccnc1 [Code 52, methyl 3-((1H-imidazol-1-yl)methyl)-4′-(tert-butyl)-[1,1′-biphenyl]-4-carboxylate] | 2 µg/mL (≈ 5.74 µM) | 1 µg/mL (≈ 2.87 µM) |  |
| CC(C)(C)c1ccc(-c2cccc(CNC(=N)N)c2)cc1 [Code 4] | 1 µg/mL (≈ 3.55 µM) |  | MSSA MIC data ([2]; minimal inhibitory concentration, broth microdilution, growth completely inhibited, listed as 3): 1.0 µg/mL |
| CC(C)(C)c1ccc(-c2ccc3sc(CNC(=N)N)nc3c2)cc1 [Code 6] | 8 µg/mL (≈ 23.6 µM) | 4 µg/mL (≈ 11.8 µM) |  |
| NC(N)=NCc1cccc(-c2ccc(-c3cncs3)cc2)c1 [Code 64] | 32 µg/mL (≈ 104 µM) |  | MSSA MIC data [2, 3]: 4.0 µg/mL; MSSA MIC data ([2]; minimal inhibitory concentration, broth microdilution, growth completely inhibited, listed as 54): 16 µg/mL |
| CC(C)(C)c1ccc(-c2ccnc(CN=C(N)N)c2)cc1 [Code 5] | 16 µg/mL (≈ 56.7 µM) | 8 µg/mL (≈ 28.3 µM) |  |
| CC(C)(C)c1ccc(-c2cc(N)cc(Cn3ccnc3)c2)cc1 [Code 59] |  | > 64 µg/mL |  |
| CC(C)(C)c1ccc(-c2cccc(Cn3cncn3)c2)cc1 [Code 66] | 16 µg/mL (≈ 54.9 µM) | 16 µg/mL (≈ 54.9 µM) | MRSA MIC data [1, 3]: 32 µg/mL |
| CC(C)(C)c1ccc(-c2cc(CNC(=N)N)cc(CC(Br)Br)c2)cc1 [Code 58] |  | 32 µg/mL (≈ 68.5 µM) |  |
| CC(C)(C)c1ccc(-c2cc(Cn3ccnc3)cc(Cn3ccnc3)c2)cc1 [Code 60] | 8 µg/mL (≈ 21.6 µM) | 4 µg/mL (≈ 10.8 µM) |  |
| N=C(N)N/N=C/c1cccc(-c2ccc(Br)cc2)c1 [Code 35] | 4 µg/mL (≈ 12.6 µM) |  | MSSA MIC data ([2]; minimal inhibitory concentration, broth microdilution, growth completely inhibited, listed as 30): 4.0 µg/mL |
| O=C(Nc1nccs1)c1ccc(-c2cccc(Cn3ccnc3)c2)cc1 [Code 62] | 32 µg/mL (≈ 88.8 µM) | 4 µg/mL (≈ 11.1 µM) |  |
| CC(C)(C)c1ccc(-c2cccc(/C=N/NC(=N)N)c2)cc1 [Code 12] | 8 µg/mL (≈ 27.2 µM) | 2 µg/mL (≈ 6.79 µM) |  |
| CC(C)(C)c1ccc(-c2cccc(CN)c2)cc1 [Code 57] | 16 µg/mL (≈ 66.8 µM) | 16 µg/mL (≈ 66.8 µM) |  |
| CC(C)(C)c1ccc(-c2csc(CNC(=N)N)n2)cc1 [Code 10] | 32 µg/mL (≈ 111 µM) | 4 µg/mL (≈ 13.9 µM) |  |

| Compound | MIC [1, 3] | MIC [2, 3] | further results |
| --- | --- | --- | --- |
| Cc1cc(C)cc(-c2cccc(CCN)c2)c1 [Code 45] |  | 64 µg/mL (≈ 284 µM) |  |
| COc1cc(CN2CCN(C)CC2)cc(-c2ccc(C(C)(C)C)cc2)c1OC [Code 42] | 4 µg/mL (≈ 10.5 µM) | 2 µg/mL (≈ 5.23 µM) |  |
| CC(C)(C)c1cccc(-c2cccc(CNC(=N)N)c2)c1 [Code 24] | 8 µg/mL (≈ 28.4 µM) | 2 µg/mL (≈ 7.11 µM) |  |
| CC(=O)Nc1cc(Cn2ccnc2)cc(-c2ccc(C(C)(C)C)cc2)c1 [Code 63] | > 64 µg/mL | 16 µg/mL (≈ 46 µM) |  |
| C[N+](C)(C)c1ccc(-c2ccc(-c3ccccc3)cc2)cc1.[I-] [Code 1] | 64 µg/mL | 8 µg/mL |  |
| N=C(N)N/N=C/c1cccc(-c2ccc(Br)cc2)c1 [Code 30] |  |  | MSSA MIC data ([2]; minimal inhibitory concentration, broth microdilution, growth completely inhibited, listed as 27): 32 µg/mL |
| CC(C)(C)c1cccc(-c2ccccc2CCN)c1 [Code 38] |  | 32 µg/mL (≈ 126 µM) |  |
| C[N+](C)(C)c1cccc(-c2cccc(-c3cccc(-c4ccccc4)c3)c2)c1 [Code 36] | 4 µg/mL | 1 µg/mL |  |
| CCC(C)NCc1cccc(-c2ccc(C(C)(C)C)cc2)c1 (centres unmarked) [Code 46] | 16 µg/mL (≈ 54.2 µM) |  | MSSA MIC data ([2]; minimal inhibitory concentration, broth microdilution, growth completely inhibited, listed as 40): 4.0 µg/mL |
| CC(C)(C)c1ccc(-c2ncc(CNC(=N)N)s2)cc1 [Code 11] | 32 µg/mL (≈ 111 µM) | 8 µg/mL (≈ 27.7 µM) |  |
| NC(N)=NCc1cccc(-c2ccc(Br)cc2)c1 [Code 41] |  |  | MIC [2]: 4 µg/mL (≈ 13.1 µM); MIC [1]: 8 µg/mL (≈ 26.3 µM) |
| CC(C)(C)c1ccc(-c2cc(Cn3ccnc3)cc(NS(C)(=O)=O)c2)cc1 [Code 60] |  |  | MSSA MIC data [2, 7]: 16.0 µg/mL; MRSA MIC data [1, 7]: >64 µg/mL |
| CN(C)Cc1ccc(-c2ccc(C(C)(C)C)cc2)cc1CN=C(N)N [Code 23] | 8 µg/mL (≈ 23.6 µM) | 4 µg/mL (≈ 11.8 µM) |  |
| CC(C)(C)c1ccc(-c2ccc(-c3cccc(CNC(=N)N)c3)cc2)cc1 [Code 43] | 2 µg/mL (≈ 5.59 µM) | 1 µg/mL (≈ 2.8 µM) |  |
| CC(C)(C)c1ccc(-c2cc(CNC(=N)N)cc(CNC(=N)N)c2)cc1 [Code 59] | 16 µg/mL (≈ 45.4 µM) | 16 µg/mL (≈ 45.4 µM) |  |
| CC(C)(C)c1ccc(-c2cccc(CNC(=N)N)c2)cc1 [Code 3] |  |  | MSSA MIC data ([2]; minimal inhibitory concentration, broth microdilution, growth completely inhibited, listed as 2): >64.0 µg/mL |
| CC(C)(C)c1ccc(-c2ccc(CNC(=N)N)cc2)cc1 [Code 20] |  |  | MSSA MIC data [2, 8]: 2.0 µg/mL; MRSA MIC data [1, 8]: 4.0 µg/mL |
| CC(C)(C)c1ccc(-c2cccc(Cn3ccnc3)c2)cc1 [Code 47] | 16 µg/mL (≈ 55.1 µM) | 8 µg/mL (≈ 27.5 µM) |  |
| CC(C)(C)c1ccc(-c2cccc(CNNC(=N)N)c2)cc1 [Code 31] | 4 µg/mL (≈ 13.5 µM) | 2 µg/mL (≈ 6.75 µM) |  |
| CC(C)(C)c1ccc(-c2cccc(C(=O)NC(=N)N)c2)cc1 [Code 29] | 8 µg/mL (≈ 27.1 µM) | 4 µg/mL (≈ 13.5 µM) |  |
